Data as given in patent US11040036B2, “Pyruvate kinase activators for use in treating blood disorders” (Agios Pharmaceuticals, Inc., priority 2017, dated 2021).

How the values were obtained:
wild type PKR [1] = molecular target: T1, wild type PKR (Homo sapiens, UniProt P30613); test: PKR mutant assay (AC50), wild type PKR; type: biochemical; details: wild type PKR enzyme; for AC50: read-out: PKR WT AC50
Experimental: (§1) Example 11. PKR Mutant Assay
(§2) PKR or PKR mutant enzyme solution was diluted into a reaction mix, which contains 1× buffer (100 mM KCl, 50 mM Tris pH 7.5, 5 mM MgCl2) as well as PEP (cont depends on enzyme), 180 μM NADH, 0.5 units LDH, 1 mM DTT, 0.03% BSA; final assay concentrations after 1.11 fold dilution are indicated.
(§3) 2 μL of test compound was added into wells first, and then 180 μL reaction mix was added.
(§4) Reactions mixture with test compound was assembled except for ADP, and plates were stored for 60 minutes at room temperature.
(§5) 20 uL ADP was added to start reaction at room temperature and reaction progress was measured as changes in absorbance at 340 nm wavelength at room temperature.
(§6) Test Compound Preparation:
(§7) Test compound stock was made at 100× concentration in 100% DMSO (10 mM)
(§8) 1 to 3 dilutions were made for 11 points (i.e. 50 μl of first concentration added to 100 μl 100% DMSO to yield 3.33 mM, 50 μl of this added to 100 μl DMSO to yield 1.11 mM, and so forth) • 1 to 100 dilution into assay (2 μl in 200 μl) yielded starting concentration of 100 μM, decreasing 3 fold for 11 points.
(§9) Assay Buffer: 100 mM KCl, 50 mM Tris 7.5, 5 mM MgCl2, 1 ruM DTT, 0.03% BSA
(§10) Reaction Mixture: PKR mutant enzyme: 40-400 ng/well; ADP: 0.2-1.65 mM; PEP: 0.1-0.5 mM; NADH:180 μM; LDH: 0.5 units (Sigma #59023); DTT: 1 mM; BSA: 0.03%.

PKR K410E = PKR K410E (Homo sapiens, UniProt P30613, K410E); test: PKR mutant assay (AC50), PKR K410E; type: biochemical; details: PKR K410E mutant enzyme
Experimental: as §1, §2, §3, §4, §5, §6, §7, §8, §9, §10

PKR R510Q = PKR R510Q (Homo sapiens, UniProt P30613, R510Q); test: PKR mutant assay (AC50), PKR R510Q; type: biochemical; details: PKR R510Q mutant enzyme; for AC50: read-out: PK R510Q AC50
Experimental: as §1, §2, §3, §4, §5, §6, §7, §8, §9, §10

wild type PKR [2] = molecular target: T1, wild type PKR; test: Cell based ATP assay in purified red blood cells; design: endogenous in cells; host or cells: purified red blood cells from blood of healthy volunteers; details: RBCs, overnight at 37° C., ATP levels by Cell-Titer-Glo
Experimental: Example 16. Red Blood Cell (RBC) Purification
Fresh blood drawn from healthy volunteers into K2EDTA tubes was collected. Whole blood was pelleted by spinning at 500 g for 10 minutes. Cut transfusion bag port off of Purecell leukocyte reduction neofilter (Fisher NCO267633) one (1) inch above filter. Attach a 10 ml syringe barrel to the remaining cut tubing attached to neofilter. The plasma layer was removed from the pellet of the whole blood and the pellet was resuspended in 2× volume of phosphate buffered saline (PBS). Transfer 9 ml re-suspended blood cell pellet to prepared 10 ml syringe that is attached to the neofilter. Allow whole blood to gravity flow through filter until all fluid runs through upper tubing into filter disc. Add plunger to the syringe, remove syringe from clamp and invert the filter, then plunge air through the syringe filter system. Using a new 5 ml syringe, remove filtered RBCs from the bag by the syringe port and transfer purified RBCs to a 5 ml snap cap tube that has been incubated on ice. Spin 5 ml snap cap tube at 500 g for 10 minutes at 15 C, aspirate supernatant and resuspend in AGAM (1×PBS, 1% glucose, 170 mg/L adenine, 5.25 g/L mannitol) at a density of 4×10^9 cells/mL.
Example 17. Cell Based ATP Assay
For cell based ATP assays, the compound as described herein was prepared in 100% DMSO as a 10 mM stock. Serial dilutions (1:4) were performed in 96-well V-bottom storage plate and then added 1:100 to 96-well V-bottom plates containing AGAM. RBCs were diluted in AGAM media to a density of 1×10^7 cells/mL before added 90 μL/well to black clear bottom assay plates (final compound concentration at 0.1% DMSO concentration). Assay plates were sealed using aluminum foil seals and incubated overnight at 37° C. in a humidified chamber. ATP levels were read out using Cell-Titer-Glo (Promega).

Sequence of PKR R510Q (P30613 whole entry R510Q): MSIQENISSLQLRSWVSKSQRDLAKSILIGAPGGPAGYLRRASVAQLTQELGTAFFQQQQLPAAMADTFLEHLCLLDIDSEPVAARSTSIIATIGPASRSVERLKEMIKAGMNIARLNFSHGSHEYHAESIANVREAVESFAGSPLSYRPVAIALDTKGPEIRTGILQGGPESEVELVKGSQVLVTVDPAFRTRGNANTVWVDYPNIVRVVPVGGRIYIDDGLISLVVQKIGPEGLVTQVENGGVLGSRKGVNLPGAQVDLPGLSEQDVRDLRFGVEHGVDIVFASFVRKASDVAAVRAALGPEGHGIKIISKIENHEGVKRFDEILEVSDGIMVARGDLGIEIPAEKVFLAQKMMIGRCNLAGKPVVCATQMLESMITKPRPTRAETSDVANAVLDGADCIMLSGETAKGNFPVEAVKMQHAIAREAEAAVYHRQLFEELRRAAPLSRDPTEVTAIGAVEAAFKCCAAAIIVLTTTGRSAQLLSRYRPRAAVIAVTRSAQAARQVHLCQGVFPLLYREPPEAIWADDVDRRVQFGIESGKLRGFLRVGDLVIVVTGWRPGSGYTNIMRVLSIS
Sequence of PKR K410E (P30613 whole entry K410E): as the sequence (P30613 whole entry R510Q) above, with K410E, Q510R counted along it
T1 sequence (P30613 whole entry): as the sequence (P30613 whole entry R510Q) above, with Q510R counted along it

SMILES | AC50 (wild type PKR [1]) | AC50 (PKR K410E) | AC50 (PKR R510Q) | AC50 (wild type PKR [2]) | PKR WT AC50 (wild type PKR [1]) | PKR K410E AC50 (PKR K410E) | PK R510Q AC50 (PKR R510Q) | Cell based ATP assay AC50 (wild type PKR [2])
Cn1c2nc(Cc3c[nH]nn3)sc2c2cnn(Cc3c[nH]nn3)c(=O)c21 | < 300 nM | < 300 nM | < 300 nM | ≤ 1000 nM |  |  |  | 
CN(C)c1cccc(Cn2ncc3c4sc(Cc5cc[nH]n5)nc4n(C)c3c2=O)n1 | < 300 nM | < 300 nM | < 300 nM | ≤ 1000 nM |  |  |  | 
Cn1c2nc(Cc3cc[nH]n3)sc2c2cnn(Cc3nccc(N)n3)c(=O)c21 | < 300 nM | 301 to 800 nM | < 300 nM | ≤ 1000 nM |  |  |  | 
Cc1scnc1Cc1nc2c(s1)c1cnn(Cc3ccn[nH]3)c(=O)c1n2C | < 300 nM | < 300 nM | < 300 nM | ≤ 1000 nM |  |  |  | 
Cn1c2nc(C(O)c3cc[nH]n3)sc2c2cnn(Cc3cc[nH]n3)c(=O)c21 (stereo not drawn) | < 300 nM | < 300 nM | < 300 nM | ≤ 1000 nM |  |  |  | 
Cc1scnc1Cc1nc2c(s1)c1cnn(Cc3c[nH]nn3)c(=O)c1n2C | < 300 nM | < 300 nM | < 300 nM | ≤ 1000 nM |  |  |  | 
Cn1c2nc(Cc3n[nH]cc3F)sc2c2cnn(Cc3n[nH]cc3N)c(=O)c21 | < 300 nM | < 300 nM | < 300 nM | ≤ 1000 nM |  |  |  | 
Cn1ccc(Cn2ncc3c4sc(Cc5c[nH]nn5)nc4n(C)c3c2=O)n1 | < 300 nM | < 300 nM | < 300 nM | ≤ 1000 nM |  |  |  | 
CC(=O)Nc1ccc(F)c(Cn2ncc3c4sc(Cn5ccnc5)nc4n(C)c3c2=O)c1 | > 800 nM | > 800 nM | > 800 nM | > 1000 nM |  |  |  | 
Cn1ccc(Cn2ncc3c4sc(Cc5cccc(N)n5)nc4n(C)c3c2=O)n1 | < 300 nM | < 300 nM | < 300 nM | ≤ 1000 nM |  |  |  | 
Cn1c2nc(Cc3ccccn3)sc2c2cnn(Cc3cc[nH]n3)c(=O)c21 | < 300 nM | < 300 nM | < 300 nM | ≤ 1000 nM |  |  |  | 
Cn1c2nc(Cc3cscn3)sc2c2cnn(Cc3c[nH]nn3)c(=O)c21 | < 300 nM | < 300 nM | < 300 nM | ≤ 1000 nM |  |  |  | 
Cn1c2nc(Cc3cc[nH]n3)sc2c2cnn(Cc3nc[nH]c3C(N)=O)c(=O)c21 | 301 to 800 nM | 301 to 800 nM | > 800 nM | > 1000 nM |  |  |  | 
Cn1c2nc(Cc3cc[nH]n3)sc2c2cnn(Cc3ncsc3Br)c(=O)c21 | < 300 nM | < 300 nM | < 300 nM | ≤ 1000 nM |  |  |  | 
Cn1c2nc(Cc3cc[nH]n3)sc2c2cnn(Cc3csc(F)n3)c(=O)c21 | < 300 nM | < 300 nM | < 300 nM | ≤ 1000 nM |  |  |  | 
Cn1c2nc(Cc3cc[nH]n3)sc2c2cnn(Cc3cccc(C(N)=O)n3)c(=O)c21 | < 300 nM | < 300 nM | < 300 nM | ≤ 1000 nM |  |  |  | 
Cn1c2nc(Cc3cc[nH]n3)sc2c2cnn(Cc3cnc(N)s3)c(=O)c21 | < 300 nM | < 300 nM | < 300 nM | ≤ 1000 nM |  |  |  | 
Cn1c2nc(Cc3n[nH]cc3F)sc2c2cnn(Cc3n[nH]cc3C(N)=O)c(=O)c21 | < 300 nM | < 300 nM | < 300 nM | ≤ 1000 nM |  |  |  | 
Cn1nncc1Cn1ncc2c3sc(Cc4cc[nH]n4)nc3n(C)c2c1=O | > 800 nM | > 800 nM | > 800 nM | > 1000 nM |  |  |  | 
COc1ccc(Cn2ncc3c4sc(Cc5cc[nH]n5)nc4n(C)c3c2=O)cn1 | < 300 nM | < 300 nM | < 300 nM | ≤ 1000 nM |  |  |  | 
CCOC(c1cscn1)c1nc2c(s1)c1cnn(Cc3c[nH]nn3)c(=O)c1n2C (stereo not drawn) | > 800 nM | > 800 nM | > 800 nM | > 1000 nM |  |  |  | 

SMILES | AC50 (wild type PKR [1]) | AC50 (PKR K410E) | AC50 (PKR R510Q) | AC50 (wild type PKR [2]) | PKR WT AC50 (wild type PKR [1]) | PKR K410E AC50 (PKR K410E) | PK R510Q AC50 (PKR R510Q) | Cell based ATP assay AC50 (wild type PKR [2])
Cn1c2nc(Cc3cc[nH]n3)sc2c2cnn(Cc3n[nH]cc3O)c(=O)c21 | < 300 nM | < 300 nM | < 300 nM | ≤ 1000 nM |  |  |  | 
Cn1c2nc(Cc3cc[nH]n3)sc2c2cnn(Cc3ccccn3)c(=O)c21 | < 300 nM | < 300 nM | < 300 nM | ≤ 1000 nM |  |  |  | 
Cn1c2nc(Cc3cc[nH]n3)sc2c2cnn(Cc3n[nH]cc3F)c(=O)c21 | < 300 nM | < 300 nM | < 300 nM | ≤ 1000 nM |  |  |  | 
Cn1c2nc(Cc3cc[nH]n3)sc2c2cnn(Cc3ncsc3C#N)c(=O)c21 | < 300 nM | < 300 nM | < 300 nM | ≤ 1000 nM |  |  |  | 
Cn1c2nc(Cc3csc(CO)n3)sc2c2cnn(Cc3cn[nH]n3)c(=O)c21 | < 300 nM | < 300 nM | < 300 nM | ≤ 1000 nM |  |  |  | 
Cn1c2nc(Cc3nc(N)sc3F)sc2c2cnn(Cc3cc[nH]n3)c(=O)c21 | < 300 nM | < 300 nM | < 300 nM | ≤ 1000 nM |  |  |  | 
Cn1c2nc(Cc3cc[nH]n3)sc2c2cnn(Cc3ccn(N)n3)c(=O)c21 | < 300 nM | < 300 nM | < 300 nM | ≤ 1000 nM |  |  |  | 
Cn1cc(CO)c(Cn2ncc3c4sc(Cc5cc[nH]n5)nc4n(C)c3c2=O)n1 | < 300 nM | < 300 nM | < 300 nM | ≤ 1000 nM |  |  |  | 
COc1ccc(Cn2ncc3c4sc(Cc5cc[nH]n5)nc4n(C)c3c2=O)nc1N | < 300 nM | < 300 nM | < 300 nM | ≤ 1000 nM |  |  |  | 
COc1scnc1Cc1nc2c(s1)c1cnn(Cc3cc[nH]n3)c(=O)c1n2C | < 300 nM | < 300 nM | < 300 nM | ≤ 1000 nM |  |  |  | 
Cc1scnc1Cn1ncc2c3sc(Cc4n[nH]cc4F)nc3n(C)c2c1=O | < 300 nM | < 300 nM | < 300 nM | ≤ 1000 nM |  |  |  | 
Cn1cc(C(=O)O)c(Cn2ncc3c4sc(Cc5cc[nH]n5)nc4n(C)c3c2=O)n1 | > 800 nM | > 800 nM | > 800 nM | > 1000 nM |  |  |  | 
Cn1c2nc(Cc3cc[nH]n3)sc2c2cnn(Cc3nccs3)c(=O)c21 | < 300 nM | < 300 nM | < 300 nM | ≤ 1000 nM |  |  |  | 
CNc1ccc(F)c(Cc2nc3c(s2)c2cnn(Cc4c[nH]nn4)c(=O)c2n3C)n1 | < 300 nM | < 300 nM | < 300 nM | ≤ 1000 nM |  |  |  | 
Cn1c2nc(Cn3cncn3)sc2c2cnn(Cc3n[nH]c(=O)[nH]3)c(=O)c21 |  |  |  |  | No Fit | No Fit | No Fit | No Fit
Cn1c2nc(Cc3cc[nH]n3)sc2c2cnn(Cc3ccc(F)c(N)n3)c(=O)c21 | < 300 nM | < 300 nM | < 300 nM | ≤ 1000 nM |  |  |  | 
Cn1c2nc(C(=O)c3cc[nH]n3)sc2c2cnn(Cc3cccc(N)n3)c(=O)c21 | 301 to 800 nM | < 300 nM | < 300 nM | ≤ 1000 nM |  |  |  | 
Cn1c2nc(Cc3cc[nH]n3)sc2c2cnn(Cc3ncc[nH]3)c(=O)c21 | < 300 nM | < 300 nM | < 300 nM | ≤ 1000 nM |  |  |  | 
Cn1c2nc(Cc3cc[nH]n3)sc2c2cnn(Cc3csc(CO)n3)c(=O)c21 | < 300 nM | < 300 nM | < 300 nM | ≤ 1000 nM |  |  |  | 
Cn1c2nc(Cc3c[nH]nn3)sc2c2cnn(Cc3cscn3)c(=O)c21 | < 300 nM | < 300 nM | < 300 nM | ≤ 1000 nM |  |  |  | 
Cn1ccc(Cn2ncc3c4sc(C(=O)c5cc[nH]n5)nc4n(C)c3c2=O)n1 | > 800 nM | > 800 nM | > 800 nM | ≤ 1000 nM |  |  |  | 
